Literature values in patent publication US8916356B2, “Measuring thrombin activity in whole blood” (Synapse B.V., priority 2005, dated 2014).

How the values were obtained:
[1] = tested on: thrombin generation in platelet rich plasma (or whole blood); details: literature refs 13-16
[2] = literature ref 17

**Q.** For `CCCCS(=O)(=O)N[C@@H](Cc1ccc(OCCCCC2CCNCC2)cc1)C(=O)O` [MK383], which “effect on thrombin generation” value [1] is on record?
**A.** inhibit thrombin generation

**Q.** Which “effect on thrombin generation” value [1] does the source give for `CC(=O)Oc1ccccc1C(=O)O` [aspirin] here?
**A.** inhibit thrombin generation

**Q.** And the “effect on venous thrombosis” value [2]?
**A.** prevents venous thrombosis

**Q.** For `COC(=O)[C@H](c1ccccc1Cl)N1CCc2sccc2C1` [clopidogrel], which “effect on thrombin generation” value [1] is on record?
**A.** inhibit thrombin generation

B1: abciximab (antibody, chains of the INN, looked up, V domains shown)
VH: EVQLQQSGTVLARPGASVKMSCEASGYTFTNYWMHWVKQRPGQGLEWIGAIYPGNSDTSYIQKFKGKAKLTAVTSTTSVYMELSSLTNEDSAVYYCTLYDGYYVFAYWGQGTLVTVSA
VL: EIVLTQSPVTLSVTPGDSVSLSCRASRDISNNLHWFQQTSHESPRLLIKYASQSMSGIPSRFSGSGSGTDFTLSINSVETEDFGMYFCQQTNSWPYTFGGGTKLEIK
modifications: Fab
notes: antiplatelet agent
**Q.** Which “effect on thrombin generation” value [1] does the source give for B1 here?
**A.** inhibit thrombin generation
